Measurements published in US9018351B2, “Peptide aptamers against tenascin C” (Industry-Academy Cooperation Foundation, priority 2007, dated 2015).

Assays:
[1] = test system: tenascin C-induced cell rounding; assay: Adhesion assay on fibronectin/tenascin C substratum; assay type: cell-based, human; conditions: glioblastoma cells on fibronectin/tenascin C substratum, 18 hrs
Description: (§1) FIGS. 6A-6D represent reversion of tenascin-C-induced cell morphology and migration by the peptide aptamer. […] Magnification, ×100. FIG. 6B was the results that numbers of round cell was scored and presented as percentage. Four independent experiments were performed. FIG. 6C represented U118MG migration with #2 peptides or scrambled peptides. The data are representative of three independent experiments. SD, P<0.001 relative to no treated samples. […] Whole cell extract were prepared and with anti-β-catenin antibody. Anti-β-actin was used as control.
Microtiter plates (6-well, Nunc, Roskilde, Denmark) were coated with 1 μg/cm^2 of fibrobectin or fibronectin and tenascin C for overnight at 4° C. The noncoated plastic surface was blocked with 1% heat-inactivated BSA in PBS. Before plating, cells were serum starved for 18 hrs in DMEM and trypsinized. Following soybean trypsin inhibitor treatment (100 μg/ml in PBS), cells were resuspended in serum-free medium and counted by hematocytometer. Approximately 1×10^5 cells were plated in each well and the selected peptide aptamer or scramble peptide was treated for 18 hrs, cells were observed under microscope.

tenascin C [2] = assay: Immunofluorescence on frozen tumor xenograft tissue sections; assay type: binding, human; conditions: for staining of U118MG-derived tumor xenograft tissue sections: U118MG glioblastoma xenograft in nude mice, 10 μM biotin-labeled peptide or antibody 1:1000, O/N 4° C.
Description: FIGS. 4A-4C represent immunofluorescence detection for binding of #2 peptide aptamer to U118MG-derived tumor xenograft tissue. Frozen tissue sections were incubated at 4° C. for O/N with anti-tenascin C antibody (1:1000 dilution) (FIG. 4A), anti-β-catenin antibody (1:100 dilution) (FIG. 4B), 10 μM biotin-labeled peptide aptamer (#2) or scrambled peptide (#2 scr) (FIG. 4C). Tissues were counterstained with Hoechst33258. Arrows indicate examples of positively stained cells. Magnification, ×630. Results using a xenograft mouse model with HT-29 colon cancer cells are also shown (FIG. 4D).
A tumor xenograft was established by subcutaneous injection of 2×10^6 HT29 or U118MG cells into one flank of nude mice. When the tumor diameter reached approximately 9-10 mm, the mice were killed, and the tumor tissue was obtained and […] for storage at −80° C. Frozen sections 8-10 μm thick were cut, fixed with 3.7% paraformaldehyde for 15 min at room temperature, and permeabilized with 0.5% Triton X-100 in PBS. The cells were washed and blocked with 10% fetal bovine serum, 10% non fat dry milk and 3% BSA in PBS for 2 hrs at room temperature. They were stained with anti-tenascin C antibody (BC24; Sigma-Aldrich, Saint Louis, Miss., 1:1000 dilution), anti-β-catenin antibody (clone 14; BD Transduction Laboratories, Germany, 1:100 dilution), or biotin-labeled peptide for O/N at 4° C. Secondary FITC-conjugated anti-mouse IgG antibody (Sigma-Aldrich, Saint Louis, Miss., 1:1000 dilution) or TEXAS RED-conjugated streptavidin (Calbiochem, La Jolla, Calif., 1:1000 dilution) was used for 1 hr at room temperature in the dark. Cells were counterstained with Hoechst33258.

tenascin C [3] = molecular target: T1, tenascin C (Homo sapiens, UniProt P24821); assay: Immunofluorescence analysis of lung tissue microarray; assay type: binding
T1 construct: a tissue microarray prepared with tissues from 52 lung cancer patients; from tissue; host or cells: paraffin-embedded human lung tumor and normal lung tissue (Seoul National University Bundang Hospital)
Description: FIGS. 5A-5D represent detection for binding of peptide aptamer #2 to tumor patient lung tissue. Paraffin-embedded lung tissue from an adenocarcinoma (FIG. 5A), squamous cell carcinoma (FIG. 5B), bronchioloalveolar carcinoma (FIG. 5C) and normal (FIG. 5D) tissue was incubated at 4° C. for O/N with anti-tenascin C antibody (1:1000 dilution) or with biotin-labeled peptide aptamer #2 (10 μM). Tissues were counterstained with Hoechst33258. Magnification, ×630.
The lung tissue microarray was constructed from archived paraffin blocks at Seoul National University Bundang Hospital. It is composed of 36 adenocarcinomas, 15 squamous cell carcinomas, 1 bronchioloalveolar carcinoma, and 1 normal lung. Sections were dewaxed in xylene and rehydrated in graded concentrations of ethanol and distilled water. For antigen retrieval, sections were heated for 20 min in Target Retrieval Solution, Tris/EDTA (pH 9; Dako) using a pressure cooker. Staining was carried out with anti-tenascin C antibody (BC24; Sigma-aldrich, Saint Louis, Mo., 1:1000 dilution) or biotin-labeled peptide for O/N at 4° C. Secondary anti-mouse FITC-conjugated IgG antibody or TEXAS RED-conjugated streptavidin was used for 1 hr at room temperature in the dark. Cells were counterstained with Hoechst33258.

[4] = test system: endogenously expressed tenascin C in the cultured cell lines; assay: Immunocytochemistry of cultured cancer cell lines with biotin-labeled peptide; assay type: binding, human; conditions: 1 mM biotin-labeled peptide, 1 hr, room temperature; for staining of SW620 cells: SW620 (medium tenascin C expression)
Description: FIGS. 3A-3C represent binding pattern of the selected peptides to cultured cells. Cultured cells of SW620 (FIG. 3A), U251 (FIG. 3B) and HCT116 (FIG. 3C) were incubated at room temperature for 1 hr with 1 mM of biotin-labeled peptide aptamers (#1, #2), control peptide (NC), or peptide aptamer #2 (1 mM) plus anti-tenascin C antibody (1:1000 dilution). Nuclei were counterstained with Hoechst33258. Arrows indicate examples of positively stained cells. Magnification, ×1000 (FIG. 3A and FIG. 3C), ×630 (FIG. 3B). Cells were grown on coverslips, fixed with 3.7% paraformaldehyde for 15 min at room temperature, and permeabilized with 0.5% Triton X-100 in PBS. They were washed and blocked in 10% normal calf serum, 0.5% gelatin in PBS for 30 min at room temperature. Staining was carried out with biotin-labeled peptide for 1 hr at room temperature. Secondary TEXAS RED-conjugated streptavidin (Calbiochem, La Jolla, Calif., 1:200 dilution) was applied at room temperature for 50 min in the dark. The cells were counterstained with Hoechst33258. The present inventors utilized U251, SW620 and HCT116 cells as model cell lines for high, medium and no expression of tenascin C protein, respectively (FIG. 1). The biotin-labeled peptide aptamers were used to test whether they recognized the endogenously expressed tenascin C in the cultured cell lines. […] There was no signal with the negative peptide or when aptamer was omitted. Since the peptide aptamer #2 have high frequency and observed a higher level of staining, we used it in subsequent work. The level of staining with U251 cells was higher than with SW620 cells, which may reflect a higher level of tenascin C expression.

[5] = test system: tenascin C-induced cell migration, U118MG cells; assay: Wound scratch assay; assay type: cell-based, human; conditions: serum free medium, 18 hrs
Description: as §1
U118MG cells were grown until they become confluent on a 35 mm dish and were serum starved for 18 hrs in DMEM. A straight line was drawn with a marker on the outer surface of the dish bottom and an artificial wound was made by using a pipet tip. The dish was rinsed and then incubated with the serum free medium in the presence of #2 peptides or #2 scramble peptides. After 18 hrs incubation, cells were counted.

T1 sequence (P24821 23-2201): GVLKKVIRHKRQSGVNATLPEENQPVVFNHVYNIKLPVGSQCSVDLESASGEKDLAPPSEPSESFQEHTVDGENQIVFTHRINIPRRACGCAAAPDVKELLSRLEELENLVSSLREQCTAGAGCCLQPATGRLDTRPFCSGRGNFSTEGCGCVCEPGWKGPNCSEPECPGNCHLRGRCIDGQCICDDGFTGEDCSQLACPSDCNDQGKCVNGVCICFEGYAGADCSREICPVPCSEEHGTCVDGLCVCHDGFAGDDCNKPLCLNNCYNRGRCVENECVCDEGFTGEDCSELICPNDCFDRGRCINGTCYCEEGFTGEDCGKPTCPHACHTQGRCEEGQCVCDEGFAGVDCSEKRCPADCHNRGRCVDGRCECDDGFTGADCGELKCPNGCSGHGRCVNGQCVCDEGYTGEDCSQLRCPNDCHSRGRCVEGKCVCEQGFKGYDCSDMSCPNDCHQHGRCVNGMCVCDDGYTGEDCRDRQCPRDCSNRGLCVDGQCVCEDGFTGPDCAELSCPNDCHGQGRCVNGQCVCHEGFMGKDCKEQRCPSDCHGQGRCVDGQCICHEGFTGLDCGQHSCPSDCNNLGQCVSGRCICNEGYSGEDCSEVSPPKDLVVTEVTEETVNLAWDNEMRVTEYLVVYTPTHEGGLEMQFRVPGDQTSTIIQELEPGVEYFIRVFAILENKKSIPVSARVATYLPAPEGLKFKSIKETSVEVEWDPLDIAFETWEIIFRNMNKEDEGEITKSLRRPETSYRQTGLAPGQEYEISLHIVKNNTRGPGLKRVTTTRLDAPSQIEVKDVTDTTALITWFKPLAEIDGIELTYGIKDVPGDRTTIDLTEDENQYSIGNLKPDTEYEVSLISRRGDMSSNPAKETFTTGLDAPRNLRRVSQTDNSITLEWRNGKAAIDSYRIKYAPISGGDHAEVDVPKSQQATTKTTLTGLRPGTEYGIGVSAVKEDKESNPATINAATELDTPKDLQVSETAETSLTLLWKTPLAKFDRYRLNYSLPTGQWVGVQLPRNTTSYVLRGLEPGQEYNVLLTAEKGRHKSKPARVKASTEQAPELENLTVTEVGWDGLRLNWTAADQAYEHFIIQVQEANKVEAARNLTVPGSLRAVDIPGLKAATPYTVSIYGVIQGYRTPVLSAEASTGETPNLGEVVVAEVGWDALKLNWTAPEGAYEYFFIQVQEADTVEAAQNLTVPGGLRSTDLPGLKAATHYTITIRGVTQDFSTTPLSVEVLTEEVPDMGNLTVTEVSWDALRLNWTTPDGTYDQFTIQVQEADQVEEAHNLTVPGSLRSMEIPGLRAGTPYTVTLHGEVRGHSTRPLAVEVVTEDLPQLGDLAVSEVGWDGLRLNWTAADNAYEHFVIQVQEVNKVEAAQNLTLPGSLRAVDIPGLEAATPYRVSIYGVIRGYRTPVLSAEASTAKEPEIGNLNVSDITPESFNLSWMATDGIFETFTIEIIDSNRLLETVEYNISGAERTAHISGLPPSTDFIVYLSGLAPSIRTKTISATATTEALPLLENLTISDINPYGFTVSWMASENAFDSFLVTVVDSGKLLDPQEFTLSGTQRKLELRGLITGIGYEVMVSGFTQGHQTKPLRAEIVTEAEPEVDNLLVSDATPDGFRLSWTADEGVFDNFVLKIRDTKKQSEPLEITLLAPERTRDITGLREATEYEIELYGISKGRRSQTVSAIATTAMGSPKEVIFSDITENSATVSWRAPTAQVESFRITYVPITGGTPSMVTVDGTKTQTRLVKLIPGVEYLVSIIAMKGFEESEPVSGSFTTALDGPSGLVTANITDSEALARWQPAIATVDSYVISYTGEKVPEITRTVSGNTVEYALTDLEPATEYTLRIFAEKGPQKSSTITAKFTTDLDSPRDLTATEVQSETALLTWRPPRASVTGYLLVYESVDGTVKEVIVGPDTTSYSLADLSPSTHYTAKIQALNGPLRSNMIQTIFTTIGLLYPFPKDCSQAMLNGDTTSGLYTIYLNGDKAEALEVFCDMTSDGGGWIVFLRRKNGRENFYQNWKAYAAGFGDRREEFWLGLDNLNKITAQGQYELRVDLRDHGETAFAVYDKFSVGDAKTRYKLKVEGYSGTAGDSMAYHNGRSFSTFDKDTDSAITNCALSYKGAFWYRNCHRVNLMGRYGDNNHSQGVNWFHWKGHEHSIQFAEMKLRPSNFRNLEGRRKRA

## FHKHKSPALSPVGGG [peptide aptamer #2]
[1]
  effect on tenascin C-induced rounding morphology: significant reversion of tenascin C-induced rounding morphology
Tenascin C [2]; HT-29 colon cancer xenograft (does not express tenascin C)
  staining of HT-29 tumor xenograft tissue sections: no aptamer signal was detected
Tenascin C [2]
  staining of U118MG-derived tumor xenograft tissue sections: same prominent pattern of staining in the forms of spots and blobs
Tenascin C [3]; 1 normal lung, 10 μM biotin-labeled peptide, O/N 4° C.
  staining of normal lung tissue: No peptide aptamer #2 staining was detected
Tenascin C [3]; 52 lung cancer patients, 10 μM biotin-labeled peptide or antibody 1:1000, O/N 4° C.
  staining of lung cancer patient tissues: striking similarity of the staining patterns
[4]; HCT116 (no tenascin C expression)
  staining of HCT116 cells: no signal was detected
[4]
  staining of SW620 cells: characteristic staining pattern of spots or long streaks in a polarized region of the plasma membrane
[4]; U251 (high tenascin C expression)
  staining of U251 cells: stained two distinct areas of the U251 cells
[5]
  effect on tenascin C-induced cell migration: significantly reduced

## FHKPFFPKGSARGGG [peptide aptamer #1]
[4]
  staining of SW620 cells: characteristic staining pattern of spots or long streaks in a polarized region of the plasma membrane

## VSPKSHLKAHPFGGG [#2 scramble, scrambled form of peptide #2, control, reference compound]
[1]
  effect on tenascin C-induced rounding morphology: no significant change
Tenascin C [2]
  staining of U118MG-derived tumor xenograft tissue sections: no significant staining
[5]
  effect on tenascin C-induced cell migration: No significant reduction in cell migration
